# Columns and labels:
# Staphylococcus aureus [1] = assay: Assessment of bactericidal activity (HUVEC media); format: cell-based; conditions: for CFU (×10^8 ± SEM), Compound (10 μM): 1.2 × 10^8 CFU S. aureus, 1 h in HUVEC media
# Method: FIG. 6B illustrates that neither cytotoxicity nor bactericidal activity is detected. Cultures of Staphylococcus aureus that had been incubated with the vehicle control DMSO or with ML 141 (1 hour, 37° C., 225 rpm) were serially diluted, plated onto blood agar, and incubated (18 hours, 37° C.). Colonies were enumerated and colony forming units (CFU)/ml determined. CFU/ml were not different amongst the groups (p>0.05 by t-test; n=2/treatment). […]
# [2] = tested on: Human umbilical vein endothelial cells; assay: Cytotoxicity by propidium iodide exclusion, HUVEC; format: cell-based; conditions: for Cytotoxicity (in words): 10 μM, 18-20 h, Tables 4 and 5; for Mean fluorescence intensity (×10^4 ± SEM), Compound (10 μM): HUVEC pretreated 18-20 h
# Staphylococcus aureus [3] = assay: Staphylococcus aureus host cell invasion assay in HUVEC, flow cytometry; format: cell-based; conditions: HUVEC; for Internalized bacteria (% control ± SEM), Structural analog: 10 μM in PEG, 18-20 hours prior to infection, fluorescently labeled S. aureus 1 hour; for inhibition of invasion compared with ML 141 (Table 1): 10 μM, flow cytometry; for activity at 10 µM: Staphylococcus aureus, 1 h, read-out: Internalized bacteria (% control ± SEM), Structural analog
# Method: In one embodiment, human umbilical vein endothelial cells (HUVEC, Life Technologies) are cultured in M200 medium supplemented with LSGS. RAW 264.7 cells (American Type Culture Collection, ATCC, Manassas, Va.) are cultured in RPMI supplemented with 10% FBS and L-glutamine. All cell types are maintained at 5% CO2, 37° C., in 75 cm^2 vented cap flasks (Thermo-Fisher). For assays, cultured cells are plated at 1×10^5 cells/ml in 35 mm culture dishes coated with Attachment Factor. The next day, cells are pretreated in culture medium containing the vehicle control or ML 141. For compound delivery, ML 141 first is suspended into DMSO or into PEG at a concentration of 5 mM. The 5 mM solution is diluted to 1 mM in the solvent and then diluted to the final concentration for each experiment in either serum-containing or serum-free medium. For vehicle control treatment, the same volume of PEG or DMSO as that of ML 141 is added to medium. The following day, the invasion assay is performed. For the shorter duration experiments, compound is added on the same day as the invasion assay, 1 hour prior to bacteria.
# In another embodiment, HUVEC (Millipore, Billerica, Mass.) are cultured in EndoGRO LS Complete Media (Millipore) and are maintained at 5% CO2, 37° C., in 75 cm^2 vented cap flasks (Thermo-Fisher). For the invasion assay, cultured cells are plated at 1×10^4 cells/ml in 96-well culture dishes coated with Attachment Factor. The next day, cells are pretreated in culture medium containing the vehicle control, ML 141, or ML 141 structural analog. For compound delivery, ML 141 and structural analogs first are suspended into PEG at a concentration of 5 mM. The 5 mM solution is diluted to 1 mM in the solvent and then is diluted to the final concentration for each experiment in serum containing medium. For vehicle control treatment, the same volume of PEG as that of ML 141 or of ML 141 structural analog is added to the medium. The following day, the invasion assay is performed. Bacteria are added directly to medium containing vehicle control, ML 141, or the ML 141 structural analog.
# Two days prior to the assay, TSB is inoculated with S. aureus (American Type Culture Collection #29213) and incubated overnight (225 rpm, 37° C.). Bacteria are subcultured the next day into fresh TSB. On the day of the assay, bacteria are pelleted (10000×g, 37° C., 3 min), are washed in saline, are pelleted as above, are resuspended in saline, then fluorescently labeled by incubation with rabbit anti-mouse IgG Alexa Fluor 488 (final concentration 8 μg/ml, RT, 20 min). Protein A, a S. aureus cell surface protein, avidly binds IgG thereby labeling the bacteria. Labeled bacteria are washed twice as above and are resuspended to 3×10^8 CFU/ml in saline. Host cells are incubated with the bacteria for 1 hour (1.2×10^8 CFU/ml for same-day recovery, 5×10^6 for recovery after 48 hours, 1.4×10^7 CFU/ml; 5% CO2, 37° C.). Following infection, extracellular bacteria are removed by extensive washes with PBS and incubation of the host cells with antimicrobials that have limited mammalian membrane permeability (lysostaphin, 20 μg/ml and gentamicin, 50 μg/ml; 45 min for same-day recovery studies, 48 hours for 2-day recovery studies; 5% CO2, 37° C.). To detect the level of infection using flow cytometry, cells that have been infected with fluorescently-labeled bacteria are washed extensively with PBS, lifted from 96-well plate by incubation with trypsin, washed extensively in FACS buffer (2% BSA/0.1% sodium azide/PBS), fixed (FACS buffer containing 0.74% formaldehyde), and are counted using an Accuri flow cytometer (BD, Franklin Lakes, N.J.). They are also lifted from culture dishes using cell scrapers, pelleted, fixed (1% BSA/0.74% formaldehyde/PBS), and are counted using an Accuri flow cytometer. For enumeration of the infecting bacteria, intracellular bacteria are released from host cells using 1% saponin/PBS (20 min, 5% CO2, 37° C.) and serial dilutions are plated on TSA (16 hours, 37° C.). […]
# CDC42 = CDC42 (Homo sapiens, UniProt P60953); assay: BODIPY-FL-GTP binding to CDC42
# Chain of CDC42 (P60953 whole entry): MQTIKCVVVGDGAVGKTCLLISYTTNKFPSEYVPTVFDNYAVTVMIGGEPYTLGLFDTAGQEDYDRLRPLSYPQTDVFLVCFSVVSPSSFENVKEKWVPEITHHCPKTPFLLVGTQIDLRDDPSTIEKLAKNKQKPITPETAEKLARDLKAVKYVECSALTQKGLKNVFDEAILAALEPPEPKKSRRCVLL
# RAW 264.7 cells = assay: Cytotoxicity by propidium iodide, RAW 264.7 cells; format: cell-based; conditions: RAW 264.7 pretreated 18-20 h
# Staphylococcus aureus [4] = assay: Intracellular bacteria per host cell (HUVEC), fluorescence microscopy; format: cell-based; conditions: 10 μmol/L, 18-20 h, 100 cells counted
# Staphylococcus aureus [5] = assay: Assessment of bactericidal activity (DMEM, 10% fetal bovine serum); format: cell-based; conditions: 3.2 × 10^6 CFU S. aureus, 1 h in DMEM with 10% fetal bovine serum; head prints 20 mM
SMILES,"CFU (×10^8 ± SEM), Compound (10 μM) (Staphylococcus aureus [1])","Mean fluorescence intensity (×10^4 ± SEM), Compound (10 μM) [2]","Internalized bacteria (% control ± SEM), Structural analog (Staphylococcus aureus [3])","Mean fluorescence intensity (×10^3 ± SEM), Compound (10 μM) (RAW 264.7 cells)","Intracellular bacteria/cell (±SEM), Structural analog (Staphylococcus aureus [4])","CFU/mL (×10^9 ± SEM), Compound (Staphylococcus aureus [5])",further results
COc1ccc(C2=NN(c3ccc(S(N)(=O)=O)cc3)C(c3ccc(Cl)cc3)C2)cc1 (stereo not shown) [RSM 04],3.8 ± 0.8 ×10^8 CFU,4.6 ± 0.2 ×10^4,11 ± 1% % control,,,,Cytotoxicity (in words) [2]: cytotoxic; inhibition of invasion compared with ML 141 (Table 1) (Staphylococcus aureus [3]): inhibited invasion more than ML 141
NS(=O)(=O)c1ccc(N2N=C(c3ccccc3)CC2c2ccc3c(c2)OCO3)cc1 (stereo not shown) [RSM 05],8.0 ± 1.7 ×10^8 CFU,3.9 ± 0.2 ×10^4,,,,,IC50 (CDC42): 3.4 µM; activity at 10 µM (Staphylococcus aureus [3]): 38 ± 3%
COc1ccc(C2=NN(c3ccc(S(N)(=O)=O)cc3)C(c3ccccc3)C2)cc1 (stereo not shown) [RSM 07],11.5 ± 1.1 ×10^8 CFU,2.5 ± 0.4 ×10^4,,,,,GTP binding (IC50) (CDC42): only slightly higher; IC50 (CDC42): 6.2 µM; activity at 10 µM (Staphylococcus aureus [3]): 34 ± 2%
COCCOc1ccc(C2CC(c3ccccc3)=NN2c2ccc(S(N)(=O)=O)cc2)cc1 (stereo not shown) [RSM 11],,,61 ± 2% % control,,,,
COCCOc1ccc(C2CC(c3ccc(OC)cc3)=NN2c2ccc(S(N)(=O)=O)cc2)cc1 (stereo not shown) [RSM 12],,,57 ± 3% % control,,,,
COc1cc(C2CC(c3ccccc3)=NN2c2ccc(S(N)(=O)=O)cc2)cc(OC)c1OC (stereo not shown) [RSM 13],,,62 ± 5% % control,,,,
COc1ccc(C2=NN(c3ccc(S(N)(=O)=O)cc3)C(c3cc(OC)c(OC)c(OC)c3)C2)cc1 (stereo not shown) [RSM 14],,,71 ± 3% % control,,,,
COc1ccc(C2CC(c3ccccc3)=NN2c2ccc(S(N)(=O)=O)cc2)cc1OC (stereo not shown) [RSM 15],10.1 ± 1.0 ×10^8 CFU,4.0 ± 0.4 ×10^4,,,,,IC50 (CDC42): 2.2 µM; inhibition of invasion compared with ML 141 (Table 1) (Staphylococcus aureus [3]): inhibited invasion more than ML 141; activity at 10 µM (Staphylococcus aureus [3]): 45 ± 1%
COCCOc1ccc(C2=NN(c3ccc(S(N)(=O)=O)cc3)C(c3ccc(OC)cc3)C2)cc1 (stereo not shown) [RSM 17],,,67 ± 8% % control,,,,
COCCOc1ccc(C2=NN(c3ccc(S(N)(=O)=O)cc3)C(c3ccc(OCCOC)cc3)C2)cc1 (stereo not shown) [RSM 18],,,76 ± 7% % control,,,,
COc1ccc(C2C(C)C(c3ccccc3)=NN2c2ccc(S(N)(=O)=O)cc2)cc1 (stereo not shown) [RSM 19],9.4 ± 1.0 ×10^8 CFU,2.6 ± 0.01 ×10^4,,,,,IC50 (CDC42): 13.5 µM; activity at 10 µM (Staphylococcus aureus [3]): 61 ± 2%
COCCOc1ccc(C2=NN(c3ccc(S(N)(=O)=O)cc3)C(c3ccc(Cl)cc3)C2)cc1 (stereo not shown) [RSM 20],10.0 ± 0.2 ×10^8 CFU,2.1 ± 0.2 ×10^4,,,,,IC50 (CDC42): 46.5 µM; activity at 10 µM (Staphylococcus aureus [3]): 61 ± 4%
COc1ccc(C2C3Cc4ccccc4C3=NN2c2ccc(S(N)(=O)=O)cc2)cc1 (stereo not shown) [RSM 21],15.0 ± 1.1 ×10^8 CFU,2.8 ± 0.09 ×10^4,,,,,GTP binding (IC50) (CDC42): only slightly higher; IC50 (CDC42): 5.5 µM; activity at 10 µM (Staphylococcus aureus [3]): 79 ± 3%
COc1ccc(C2(C)CC(c3ccccc3)=NN2c2ccc(S(N)(=O)=O)cc2)cc1 (stereo not shown) [RSM 26],0.8 ± 1.1 ×10^8 CFU,26.8 ± 2.1 ×10^4,40 ± 3% % control,,,,"Bactericidal activity (in words) (Staphylococcus aureus [1]; S. aureus incubated 1 h with compound, FIG. 6B, Tables 6 and 7): bactericidal; Cytotoxicity (in words) [2]: cytotoxic"
COc1ccc(CCC(=NNc2ccc(S(N)(=O)=O)cc2)c2ccccc2)cc1 [RSM 27],,,,1.0 ± 0.1 ×10^3,4.4 ± 0.5 bacteria/cell,2.4 ± 0.6 ×10^9 CFU/mL,
CN(C)c1ccc(C2CC(c3ccccc3)=NN2c2ccc(S(N)(=O)=O)cc2)cc1 (stereo not shown) [RSM 28],,,,11 ± 2.0 ×10^3,1.4 ± 0.3 bacteria/cell,1.8 ± 0.05 ×10^9 CFU/mL,
CC(=O)Nc1ccc(C2CC(c3ccccc3)=NN2c2ccc(S(N)(=O)=O)cc2)cc1 (stereo not shown) [RSM 29],,,,4.2 ± 0.3 ×10^3,2.4 ± 0.4 bacteria/cell,1.4 ± 0.1 ×10^9 CFU/mL,
COc1ccc(C2CC(c3cccc(NC(C)=O)c3)=NN2c2ccc(S(N)(=O)=O)cc2)cc1 (stereo not shown) [RSM 30],,,,2.4 ± 0.4 ×10^3,1.7 ± 0.3 bacteria/cell,1.5 ± 0.02 ×10^9 CFU/mL,
COc1ccc(C2CC(c3ccc(NC(C)=O)cc3)=NN2c2ccc(S(N)(=O)=O)cc2)cc1 (stereo not shown) [RSM 31],,,,2.4 ± 0.3 ×10^3,1.4 ± 0.4 bacteria/cell,0.9 ± 0.09 ×10^9 CFU/mL,
CCC(=O)Nc1ccc(C2=NN(c3ccc(S(N)(=O)=O)cc3)C(c3ccc(OC)cc3)C2)cc1 (stereo not shown) [RSM 32],,,,2.8 ± 1.1 ×10^3,5.5 ± 0.4 bacteria/cell,2.4 ± 0.3 ×10^9 CFU/mL,
CCC(=O)Nc1cccc(C2=NN(c3ccc(S(N)(=O)=O)cc3)C(c3ccc(OC)cc3)C2)c1 (stereo not shown) [RSM 33],,,,2.9 ± 1.1 ×10^3,5.4 ± 0.4 bacteria/cell,1.3 ± 0.04 ×10^9 CFU/mL,
